The record followed here is PubChem BioAssay (NCI).

Some test systems named below: COLO 205 colon; DU-145 prostate; HCC-2998 colon; HL-60(TB) leukemia; LOX IMVI melanoma; PC-3 prostate; RPMI-8226 leukemia; SN12C renal; SR leukemia; UACC-257 melanoma.
Common to all, as to assay: inhibition of tumour cell growth, NCI panel, 48 h

Structures are written as SMILES. Where “and” joins values, the source holds several entries; their conditions need not be identical. Equal entries are not always repeated.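 Five compound concentrations were applied to cells in 96-well plates for 48 hours; endpoints were derived by simple linear interpolation of the resulting dose-response curve. GI50 is the concentration that inhibits growth by half. TGI: concentration producing complete growth inhibition.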

For `Nc1ccc(C#Cc2cncnc2Nc2ccc(OCc3cccc(F)c3)c(Cl)c2)cc1`, the GI50 in the assay with COLO 205 colon is greater than 25000 nM; in the assay with DU-145 prostate it was greater than 18000 nM; in the assay on HCC-2998 colon, 11100 nM; with HL-60(TB) leukemia it was 5680 nM; with LOX IMVI melanoma it was 12800 nM; in the assay with PC-3 prostate, 8910 nM. Further, the GI50 in the assay on RPMI-8226 leukemia is 15300 nM; with SN12C renal, greater than 15600 nM; with SR leukemia, greater than 18000 nM; in the assay on UACC-257 melanoma, greater than 13200 nM. The TGI in the assay on COLO 205 colon, in the assay on DU-145 prostate, with HCC-2998 colon, with HL-60(TB) leukemia, in the assay with LOX IMVI melanoma and in the assay on PC-3 prostate was greater than 25000 nM each time. Also, the TGI with RPMI-8226 leukemia, with SN12C renal, in the assay with SR leukemia and in the assay with UACC-257 melanoma was greater than 25000 nM in each case.
With `C#CCN1CCN(C(=S)N/N=C(\C)c2ccccn2)CC1`, the GI50 with COLO 205 colon is 3.62 nM; in the assay with DU-145 prostate it was 1190 nM; in the assay on HL-60(TB) leukemia, 1.95 nM; with LOX IMVI melanoma it was 1600 nM; with PC-3 prostate it was 12.1 nM; in the assay on RPMI-8226 leukemia, 2.87 nM. Moreover, the GI50 in the assay on SN12C renal was 2390 nM; with UACC-257 melanoma, 5.58 nM. Besides, the TGI was 2300 nM and 915 nM in the assay on COLO 205 colon; 4740 nM and 6360 nM in the assay on DU-145 prostate; 4380 nM in the assay with HCC-2998 colon; 4.97 nM and 11.6 nM in the assay on HL-60(TB) leukemia; 6800 nM in the assay with LOX IMVI melanoma; 2480 nM and 1450 nM with PC-3 prostate. The TGI with SN12C renal is 11400 nM; in the assay with SR leukemia, 2360 nM; with UACC-257 melanoma it was 2720 nM and 2530 nM.
With `CS(=O)(=O)N1CCN(Cc2cc3nc(-c4cccc5[nH]ncc45)nc(N4CCOCC4)c3s2)CC1` (tested in a mixture with another compound), the GI50 in the assay with COLO 205 colon was 182 nM; in the assay with DU-145 prostate, 83.7 nM; with HCC-2998 colon, 1310 nM; in the assay with HL-60(TB) leukemia, 57.5 nM; in the assay on LOX IMVI melanoma, 169 nM; in the assay on PC-3 prostate, 82.3 nM. Besides, the GI50 with RPMI-8226 leukemia is 3480 nM; in the assay on SN12C renal, 89.8 nM; in the assay with SR leukemia it was 194 nM; with UACC-257 melanoma it was 60.8 nM. Besides, the TGI in the assay with COLO 205 colon was 649 nM; with HCC-2998 colon, greater than 100000 nM; with HL-60(TB) leukemia, 34000 nM; with RPMI-8226 leukemia, greater than 100000 nM; with UACC-257 melanoma it was 420 nM.
With `CC[N+](CC)=c1ccc2nc3c(cc(NCc4ccccc4)c4ccccc43)oc-2c1`, the GI50 was 153 nM in the assay with COLO 205 colon; 155 nM in the assay on DU-145 prostate; 338 nM in the assay on HCC-2998 colon; 209 nM in the assay with HL-60(TB) leukemia; 127 nM in the assay on LOX IMVI melanoma; 264 nM in the assay on PC-3 prostate. The GI50 in the assay on RPMI-8226 leukemia is 94.9 nM; with SN12C renal, 1020 nM; in the assay on SR leukemia, 270 nM; in the assay on UACC-257 melanoma, 159 nM. Besides, the TGI stood at 311 nM with COLO 205 colon; 291 nM in the assay on DU-145 prostate; 1260 nM in the assay with HCC-2998 colon; 1110 nM in the assay on HL-60(TB) leukemia; 299 nM in the assay on LOX IMVI melanoma; 1630 nM in the assay with PC-3 prostate. In addition, the TGI in the assay with RPMI-8226 leukemia was determined as 539 nM; in the assay on SN12C renal, 2340 nM; with SR leukemia, 999 nM; in the assay with UACC-257 melanoma, 387 nM.
For the compound `Nc1c(C(=O)c2cccc(OCCN3CCOCC3)c2)cnn1-c1ccc(F)cc1`, the GI50 with COLO 205 colon, with DU-145 prostate, in the assay with HCC-2998 colon, in the assay on HL-60(TB) leukemia, in the assay with LOX IMVI melanoma and in the assay on PC-3 prostate was greater than 25000 nM each time. Further, the GI50 with RPMI-8226 leukemia, in the assay with SN12C renal, in the assay on SR leukemia and with UACC-257 melanoma was greater than 25000 nM each time. Moreover, the TGI in the assay with COLO 205 colon, in the assay on DU-145 prostate, in the assay on HCC-2998 colon, with HL-60(TB) leukemia, in the assay with LOX IMVI melanoma and in the assay with PC-3 prostate was greater than 25000 nM in each case. The TGI with RPMI-8226 leukemia, with SN12C renal, in the assay on SR leukemia and in the assay on UACC-257 melanoma was greater than 25000 nM throughout.
Regarding `CCCCCCCCOc1ccc(/C=N/Nc2cc(C)nc3ccc(Cl)cc23)cc1`, the GI50 with COLO 205 colon was 1820 nM; in the assay on DU-145 prostate, 1760 nM; in the assay with HCC-2998 colon it was 2030 nM; in the assay on HL-60(TB) leukemia, 2000 nM; in the assay on LOX IMVI melanoma, 1660 nM; in the assay on PC-3 prostate it was 1500 nM. Further, the GI50 is 2010 nM in the assay on RPMI-8226 leukemia, 1780 nM in the assay on SN12C renal, 1610 nM with SR leukemia and 1750 nM in the assay with UACC-257 melanoma. Further, the TGI worked out at 3560 nM in the assay on COLO 205 colon; 3320 nM with DU-145 prostate; 3590 nM in the assay on HCC-2998 colon; 4460 nM in the assay on HL-60(TB) leukemia; 3170 nM with LOX IMVI melanoma; 3040 nM with PC-3 prostate. Further, the TGI amounted to 4630 nM with RPMI-8226 leukemia, 3350 nM in the assay with SN12C renal, 7120 nM in the assay with SR leukemia and 4030 nM with UACC-257 melanoma.
